Results published in patent US9365583B2, “Substituted pyrazoles and uses thereof” (Genentech, Inc., priority 2013, dated 2016).
pKi: −log10 of the molar value.

Target: T1, N-terminally GST-tagged DLK (catalytic domain amino acid 1-520) (Homo sapiens, UniProt Q12852)
T1 construct: N-terminally GST-tagged DLK (catalytic domain amino acid 1-520); purchased Carna Bioscience
T1 sequence (Q12852 1-520): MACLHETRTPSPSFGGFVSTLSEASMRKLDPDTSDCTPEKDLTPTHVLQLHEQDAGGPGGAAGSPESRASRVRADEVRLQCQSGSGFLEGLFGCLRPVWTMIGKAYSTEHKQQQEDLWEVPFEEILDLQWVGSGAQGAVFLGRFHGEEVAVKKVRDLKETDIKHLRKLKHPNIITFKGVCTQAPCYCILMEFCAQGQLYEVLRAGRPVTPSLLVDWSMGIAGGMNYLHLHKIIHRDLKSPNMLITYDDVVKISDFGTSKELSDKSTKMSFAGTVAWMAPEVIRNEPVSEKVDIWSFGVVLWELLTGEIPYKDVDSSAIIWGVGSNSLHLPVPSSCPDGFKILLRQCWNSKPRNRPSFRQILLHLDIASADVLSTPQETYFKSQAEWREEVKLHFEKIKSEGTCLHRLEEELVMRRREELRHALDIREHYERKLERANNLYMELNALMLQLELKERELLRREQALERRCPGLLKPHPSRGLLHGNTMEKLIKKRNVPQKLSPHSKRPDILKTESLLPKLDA
Test: DLK TR-FRET inhibition assay
Assay type: biochemical
Details: 5 nM GST-DLK, 40 nM HIS-MKK4 K131M substrate, 30 μM ATP, 60 minutes at ambient temperature
Outline: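 Phosphorylated MKK4 was quantified by TR-FRET (Eu-labelled anti-phospho-MKK4, D2 anti-HIS; 3 h, 665 and 615 nm emission) after EDTA quench. Reactions held 5 nM GST-tagged DLK catalytic domain (1-520), 40 nM HIS-MKK4 K131M substrate, 30 μM ATP and compound (3-fold series from 20 uM), 60 min, room temperature, pH 7.5.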

SMILES | pKi
CC(C)n1nc(-c2cnc(N)c(OC(F)F)c2)cc1[C@H]1[C@@H]2C[C@@H](N3CCO[C@H](C)C3)C[C@@H]21 [compound 74, 3-(difluoromethoxy)-5-(1-isopropyl-5-((1R,3s,5S,6R)-3-((R)-2-methylmorpholino)bicyclo[3.1.0]hexan-6-yl)-1H-pyrazol-3-yl) pyridin-2-amine] | 8.43
CC(C)n1nc(-c2cnc(N)c(OC(F)F)c2)cc1[C@H]1[C@@H]2C[C@@H](N3CCO[C@@H](C)C3)C[C@@H]21 [compound 75, 3-(difluoromethoxy)-5-(1-isopropyl-5-((1R,3s,5S,6S)-3-((S)-2-methylmorpholino)bicyclo[3.1.0]hexan-6-yl)-1H-pyrazol-3-yl) pyridin-2-amine] | 9.13
CC(C)n1nc(-c2cnc(N)c(C(F)(F)F)c2)cc1C1[C@H]2CC(N3CCOCC3)C[C@@H]12 (stereo partly drawn) [compound 76, 5-(1-isopropyl-5-((1R,3s,5S,6r)-3-morpholinobicyclo[3.1.0]hexan-6-yl)-1H-pyrazol-3-yl)-3-(trifluoromethyl)pyridin-2-amine] | 8.66
CC(C)n1nc(-c2cnc(N)c(OC(F)F)c2)cc1[C@H]1[C@@H]2C[C@H](N3CCO[C@H](C)C3)C[C@@H]21 [compound 77, 3-(difluoromethoxy)-5-(1-isopropyl-5-((1R,3r,5S,6R)-3-((R)-2-methylmorpholino)bicyclo[3.1.0]hexan-6-yl)-1H-pyrazol-3-yl) pyridin-2-amine] | 8.89
CC(C)n1nc(-c2cnc(N)c(OC(F)F)c2)cc1[C@H]1[C@@H]2C[C@H](N3CCO[C@@H](C)C3)C[C@@H]21 [compound 78, 3-(difluoromethoxy)-5-(1-isopropyl-5-((1R,3r,5S,6S)-3-((S)-2-methylmorpholino)bicyclo[3.1.0]hexan-6-yl)-1H-pyrazol-3-yl) pyridin-2-amine] | 9.28
CC(C)n1nc(-c2cnc(N)c(OC(F)F)c2)cc1[C@H]1[C@@H]2C[C@@H](N3CCOC[C@@H]3C)C[C@@H]21 [compound 79, 3-(difluoromethoxy)-5-(1-isopropyl-5-((1R,3s,5S,6S)-3-((S)-3-methylmorpholino)bicyclo[3.1.0]hexan-6-yl)-1H-pyrazol-3-yl) pyridin-2-amine] | 8.96
CC(C)n1nc(-c2cnc(N)c(OC(F)F)c2)cc1[C@H]1[C@@H]2C[C@H](N3CCOC[C@@H]3C)C[C@@H]21 [compound 80, 3-(difluoromethoxy)-5-(1-isopropyl-5-((1R,3r,5S,6S)-3-((S)-3-methylmorpholino)bicyclo[3.1.0]hexan-6-yl)-1H-pyrazol-3-yl) pyridin-2-amine] | 9.22
CC(C)n1nc(-c2cnc(N)c(OC(F)F)c2)cc1[C@H]1[C@@H]2C[C@H](N3CCOC[C@H]3C)C[C@@H]21 [compound 81, 3-(difluoromethoxy)-5-(1-isopropyl-5-((1R,3r,5S,6R)-3-((R)-3-methylmorpholino)bicyclo[3.1.0]hexan-6-yl)-1H-pyrazol-3-yl) pyridin-2-amine] | 8.84
CC(C)n1nc(-c2cnc(N)c(OC(F)F)c2)cc1[C@H]1[C@@H]2C[C@@H](N3CCOC[C@H]3C)C[C@@H]21 [compound 82, 3-(difluoromethoxy)-5-(1-isopropyl-5-((1R,3s,5S,6R)-3-((R)-3-methylmorpholino)bicyclo[3.1.0]hexan-6-yl)-1H-pyrazol-3-yl) pyridin-2-amine] | 8.84
CC(C)n1nc(-c2cnc(N)c(OC(F)F)c2)cc1[C@H]1[C@@H]2C[C@H](N3C[C@@H]4C[C@H]3CO4)C[C@@H]21 [compound 83, 5-(5-((1R,3r,5S,6S)-3-((1S,4S)-2-oxa-5-azabicyclo[2.2.1]heptan-5-yl)bicyclo[3.1.0]hexan-6-yl)-1-isopropyl-1H-pyrazol-3-yl)-3-(difluoromethoxy)pyridin-2-amine] | 9.92
CC(C)n1nc(-c2cnc(N)c(OC(F)F)c2)cc1[C@H]1[C@@H]2C[C@@H](N3CCOCC3)C[C@@H]21 [compound 84, 3-(difluoromethoxy)-5-(1-isopropyl-5-((1R,3s,5S,6r)-3-morpholino-bicyclo[3.1.0]hexan-6-yl)-1H-pyrazol-3-yl)pyridin-2-amine] | 8.77
CC(C)n1nc(-c2cnc(N)c(OC(F)F)c2)cc1[C@H]1[C@@H]2CC(=O)C[C@@H]21 [compound 85, (1R,5S,6r)-6-(3-(6-amino-5-(difluoro-methoxy)pyridin-3-yl)-1-isopropyl-1H-pyrazol-5-yl)bicyclo [3.1.0]hexan-3-one] | 7.32
CC(C)n1nc(-c2cnc(N)c(OC(F)F)c2)cc1[C@H]1[C@@H]2C[C@H](N3CCOCC3)C[C@@H]21 [compound 86, 3-(difluoromethoxy)-5-(1-isopropyl-5-((1R,3r,5S,6r)-3-morpholino-bicyclo[3.1.0]hexan-6-yl)-1H-pyrazol-3-yl)pyridin-2-amine] | 8.80
CC(C)n1nc(-c2cnc(N)c(OC(F)F)c2)cc1[C@H]1[C@@H]2C[C@@H](N3CCCOCC3)C[C@@H]21 [compound 87, 5-(5-((1R,3s,5S,6r)-3-(1,4-oxazepan-4-yl)bicyclo[3.1.0]hexan-6-yl)-1-isopropyl-1H-pyrazol-3-yl)-3-(difluoromethoxy)pyridin-2-amine] | 9.19
CC(C)n1nc(-c2cnc(N)c(OC(F)F)c2)cc1[C@H]1[C@@H]2C[C@@H](N3CCN4CCCC4C3)C[C@@H]21 (stereo partly drawn) [compound 88, 3-(difluoromethoxy)-5-(5-((1R,3s,5S,6r)-3-(hexahydropyrrolo [1,2-a]pyrazin-2(1H)-yl)bicyclo [3.1.0]hexan-6-yl)-1-isopropyl-1H-pyrazol-3-yl)pyridin-2-amine] | 8.85
CC(C)n1nc(-c2cnc(N)c(OC(F)F)c2)cc1[C@H]1[C@@H]2C[C@H](N3CCC(F)(F)C3)C[C@@H]21 [compound 89, 3-(difluoromethoxy)-5-(5-((1R,3r,5S,6r)-3-(3,3-difluoropyrrolidin-1-yl)bicyclo[3.1.0]hexan-6-yl)-1-isopropyl-1H-pyrazol-3-yl) pyridin-2-amine] | 8.19
CO[C@H]1CCN([C@@H]2C[C@@H]3[C@H](C2)[C@H]3c2cc(-c3cnc(N)c(C(F)(F)F)c3)nn2C(C)C)C1 [compound 90, (1-isopropyl-5-((1R,3s,5S,6S)-3-((S)-3-methoxypyrrolidin-1-yl)bicyclo[3.1.0]hexan-6-yl)-1H-pyrazol-3-yl)-3-(trifluoromethyl) pyridin-2-amine] | 8.23
Nc1ncc(-c2cc([C@H]3[C@@H]4C[C@H](N5CCOCC5)C[C@@H]43)n(CC(F)F)n2)cc1C(F)(F)F [compound 91, 5-(1-(2,2-difluoroethyl)-5-((1R,3r,5S,6r)-3-morpholinobicyclo [3.1.0]hexan-6-yl)-1H-pyrazol-3-yl)-3-(trifluoromethyl)pyridin-2-amine] | 8.42
CC(C)n1nc(-c2cnc(N)c(OC(F)F)c2)cc1[C@H]1[C@@H]2CC3(CCO3)C[C@@H]21 (stereo partly drawn) [compound 92, 3-(difluoromethoxy)-5-(1-isopropyl-5-((1 R,5S,6r)-spiro[bicyclo [3.1.0]hexane-3,2′-oxetan]-6-yl)-1H-pyrazol-3-yl)pyridin-2-amine] | 8.03
Nc1ncc(-c2cc([C@H]3[C@@H]4C[C@H](N5CCOCC5)C[C@@H]43)n(CC(F)F)n2)cc1OC(F)(F)F [compound 93, 5-(1-(2,2-difluoroethyl)-5-((1R,3r,5S,6r)-3-morpholinobicyclo [3.1.0]hexan-6-yl)-1H-pyrazol-3-yl)-3-(trifluoromethoxy)pyridin-2-amine] | 8.91
Nc1ncc(-c2cc([C@H]3[C@@H]4CC(O)C[C@@H]43)n(CC(F)F)n2)cc1OC(F)(F)F (stereo partly drawn) [compound 94, (1R,5S,6r)-6-(3-(6-amino-5-(trifluoromethoxy)pyridin-3-yl)-1-(2,2-difluoroethyl)-1H-pyrazol-5-yl)bicyclo[3.1.0]hexan-3-ol] | 8.84
CC(C)n1nc(-c2cnc(N)c(SC(F)(F)F)c2)cc1[C@H]1[C@@H]2C[C@@H](N3CCOCC3)C[C@@H]21 [compound 95, 5-(1-isopropyl-5-((1R,3s,5S,6r)-3-morpholinobicyclo[3.1.0]hexan-6-yl)-1H-pyrazol-3-yl)-3-((trifluoro-methyl)thio)pyridin-2-amine] | 8.67
CC(C)n1nc(-c2cnc(N)c(OCC(F)(F)F)c2)cc1[C@H]1[C@@H]2C[C@@H](N3CCOCC3)C[C@@H]21 [compound 96, 5-(1-isopropyl-5-((1R,3s,5S,6r)-3-morpholinobicyclo[3.1.0]hexan-6-yl)-1H-pyrazol-3-yl)-3-(2,2,2-trifluoroethoxy)pyridin-2-amine] | 7.72
CC(C)n1nc(-c2cnc(N)c(OC(F)(F)F)c2)cc1[C@H]1[C@@H]2C[C@H](N3CCOC[C@@H]3C)C[C@@H]21 [compound 97, 5-(1-isopropyl-5-((1R,3r,5S,6S)-3-((S)-3-methylmorpholino)bicyclo[3.1.0]hexan-6-yl)-1H-pyrazol-3-yl)-3-(trifluoromethoxy) pyridin-2-amine] | 8.39
